The values below come from patent publication US9156796B2, “Benzoimidazole-carboxylic acid amide derivatives as APJ receptor modulators” (SANOFI, priority 2013, dated 2015).

What is called EC50 is the concentration that produces a half-maximal response.

The target in this test is T1, human apelin receptor (Homo sapiens, UniProt P35414).
T1 construct: expressed in transfected cells
T1 sequence (P35414 1-380): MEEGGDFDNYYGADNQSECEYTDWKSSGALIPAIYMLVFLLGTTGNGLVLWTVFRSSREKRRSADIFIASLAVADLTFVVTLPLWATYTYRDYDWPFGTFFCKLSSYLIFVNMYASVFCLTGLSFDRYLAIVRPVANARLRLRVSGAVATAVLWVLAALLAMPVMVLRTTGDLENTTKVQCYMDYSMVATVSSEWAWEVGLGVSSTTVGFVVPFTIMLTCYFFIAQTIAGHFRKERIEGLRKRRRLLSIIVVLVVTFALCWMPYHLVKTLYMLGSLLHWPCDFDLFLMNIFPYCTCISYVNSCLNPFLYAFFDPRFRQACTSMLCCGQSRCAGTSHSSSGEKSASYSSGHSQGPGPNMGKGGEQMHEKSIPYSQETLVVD
Description: Determination of agonism on the human apelin receptor by a calcium fluorescence assay (FLIPR). The format is cell-based. To be noted: HEK293 cells stably transfected with human apelin receptor and Giaq protein, Fluo-4 calcium fluorescence. In a few lines: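 Agonist EC50s come from peak intracellular calcium transients recorded by FLIPR Tetra, scaled to the 1 μM apelin-13 maximum per plate. Test system: HEK293 stably transfected with human apelin receptor plus Giaq, Fluo-4-loaded (4 μM, 1 h, 37 °C, pH 7.4 buffer with probenecid); ≥7 concentrations, triplicates.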

Structures are written as SMILES. Where two headings read alike, the source gives them in different places. Bounds are passed on as bounds.

With `C[C@@H]1CCCC[C@H]1n1c(Cc2cccs2)nc2cc(C(=O)NC3(CC(=O)O)CCCCC3)ccc21` [Example 66, (1-{[1-((1R,2R)-2-Methyl-cyclohexyl)-2-thiophen-2-ylmethyl-1H-benzoimidazole-5-carbonyl]-amino}-cyclohexyl)-acetic acid], the half-maximal effective concentration (EC50) (read-out: EC50 (APJ agonism)) turned out to be 87 nM. As to `CCC(CC)n1c(Cc2ccco2)nc2cc(C(=O)N[C@@H](CC(C)C)C(=O)O)ccc21` [Example 81, (S)-2-{[1-(1-Ethyl-propyl)-2-furan-2-ylmethyl-1H-benzoimidazole-5-carbonyl]-amino}-4-methyl-pentanoic acid], the EC50 (read-out: EC50 (APJ agonism)) is less than 41 nM. As for `CCC(CC)n1c(Cc2cccs2)nc2cc(C(=O)N[C@@H](CC3CC3)C(=O)O)ccc21` [Example 21, (S)-3-Cyclopropyl-2-{[1-(1-ethyl-propyl)-2-thiophen-2-ylmethyl-1H-benzoimidazole-5-carbonyl]-amino}-propionic acid], under “read-out: EC50 (APJ agonism)”, the EC50 amounted to 443 nM. On to `CCC(CC)n1c(Cc2cccs2)nc2cc(C(=O)N[C@H](CCC(=O)O)C(C)C)ccc21` [Example 162, (R)-4-{[1-(1-Ethyl-propyl)-2-thiophen-2-ylmethyl-1H-benzoimidazole-5-carbonyl]-amino}-5-methyl-hexanoic acid], for which, under “read-out: EC50 (APJ agonism)”, the EC50 is 1100 nM. Turning to `CC(C)C[C@H](NC(=O)c1ccc2c(c1)nc(Cc1cccs1)n2C1CCCCC1C(F)(F)F)C(=O)O` (stereo partly drawn) [Example 87, (S)-4-Methyl-2-{[2-thiophen-2-ylmethyl-1-(2-trifluoromethyl-cyclohexyl)-1H-benzoimidazole-5-carbonyl]-amino}-pentanoic acid], the concentration for a half-maximal effect (EC50) (read-out: EC50 (APJ agonism)) was 882 nM. Turning to `CCC(CC)n1c(Cc2cccs2)nc2cc(C(=O)N[C@H](CCC(=O)O)CC(C)C)ccc21` [Example 163, (R)-4-{[1-(1-Ethyl-propyl)-2-thiophen-2-ylmethyl-1H-benzoimidazole-5-carbonyl]-amino}-6-methyl-heptanoic acid], the 50% effective concentration (EC50) (read-out: EC50 (APJ agonism)) was determined as 51 nM. On to `CCC(CC)n1c(Cc2cccs2)nc2cc(C(=O)N[C@H](CO)C(C)(C)C)ccc21` [Example 192, 1-(1-Ethyl-propyl)-2-thiophen-2-ylmethyl-1H-benzoimidazole-5-carboxylic acid ((S)-1-hydroxymethyl-2,2-dimethyl-propyl)-amide], for which the EC50 (EC50 (APJ agonism)) came to 14000 nM.

On to `CCC(CC)n1c(Cc2cccs2)nc2cc(C(=O)N[C@@H](CC(C)C)C(=O)NC3CCN(c4ccccn4)CC3)ccc21` [Example 293, 1-(1-Ethyl-propyl)-2-thiophen-2-ylmethyl-1H-benzoimidazole-5-carboxylic acid [(S)-3-methyl-1-(3,4,5,6-tetrahydro-2H-[1,2′]bipyridinyl-4-ylcarbamoyl)-butyl]-amide], for which, for the setting “read-out: EC50 (APJ agonism)”, the EC50 stood at 2640 nM.

As to `CCC(CC)n1c(CC2CCCC2)nc2cc(C(=O)N[C@H](CO)CC3CCCCC3)ccc21` [Example 167, 2-Cyclopentylmethyl-1-(1-ethyl-propyl)-1H-benzoimidazole-5-carboxylic acid ((S)-1-cyclohexylmethyl-2-hydroxy-ethyl)-amide], the 50% effective concentration (EC50) (read-out: EC50 (APJ agonism)) was found to be 7550 nM.

For `CCC(CC)n1c(Cc2cccs2)nc2cc(C(=O)N[C@@H](CC(C)C)CS(=O)(=O)NC)ccc21` [Example 485, 1-(1-Ethyl-propyl)-2-thiophen-2-ylmethyl-1H-benzoimidazole-5-carboxylic acid ((S)-3-methyl-1-methylsulfamoylmethyl-butyl)-amide], the EC50 (read-out: EC50 (APJ agonism)) was 813 nM. Turning to `CCC(CC)n1c(Cc2cccs2)nc2cc(C(=O)N[C@@H](CC(C)C)C(=O)NCC3CN(Cc4ccccc4)CCO3)ccc21` (stereo partly drawn) [Example 330, 1-(1-Ethyl-propyl)-2-thiophen-2-ylmethyl-1H-benzoimidazole-5-carboxylic acid {(S)-1-[(4-benzyl-morpholin-2-ylmethyl)-carbamoyl]-3-methyl-butyl}-amide], where the note is “read-out: EC50 (APJ agonism)”, the concentration giving a half-maximal response (EC50) was found to be 2480 nM.

In the case of `CC(C)C[C@@H](CC(=O)O)NC(=O)c1ccc2c(c1)nc(Cc1ccco1)n2C1CCCCC1C` (single isomer, unassigned) [Example 434], the 50% effective concentration (EC50) (read-out: EC50 (APJ agonism)) is 425 nM. For the molecule `CCC(CC)n1c(Cc2cccs2)nc2cc(C(=O)N[C@@H](CC(C)C)C(=O)N3CCC(N4CCC(C)CC4)CC3)ccc21` [Example 282, 1-(1-Ethyl-propyl)-2-thiophen-2-ylmethyl-1H-benzoimidazole-5-carboxylic acid [(S)-3-methyl-1-(4-methyl-[1,4′]bipiperidinyl-1′-carbonyl)-butyl]-amide], for the setting “read-out: EC50 (APJ agonism)”, the 50% effective concentration (EC50) is 430 nM. Same read-out and setting: for `CCC(C)Cn1c(CC2CCCC2)nc2cc(C(=O)N[C@@H](CC(C)C)C(=O)O)ccc21` (stereo partly drawn) [Example 109, (S)-2-{[2-Cyclopentylmethyl-1-(2-methyl-butyl)-1H-benzoimidazole-5-carbonyl]-amino}-4-methyl-pentanoic acid] the value was 3860 nM. Still for that read-out and setting: for `CCC(CC)n1c(Cc2cccs2)nc2cc(C(=O)N[C@@H](CC(C)C)C(=O)NC3CCN(Cc4ccccn4)CC3)ccc21` [Example 295, 1-(1-Ethyl-propyl)-2-thiophen-2-ylmethyl-1H-benzoimidazole-5-carboxylic acid [(S)-3-methyl-1-(1-pyridin-2-ylmethyl-piperidin-4-ylcarbamoyl)-butyl]-amide] the value was 1830 nM; for `CCC(CC)n1c(Cc2cccs2)nc2cc(C(=O)N[C@@H](CC(C)C)C(=O)NCCS(N)(=O)=O)ccc21` [Example 401, 1-(1-Ethyl-propyl)-2-thiophen-2-ylmethyl-1H-benzoimidazole-5-carboxylic acid [(S)-3-methyl-1-(2-sulfamoyl-ethylcarbamoyl)-butyl]-amide], 600 nM. On the same count and under the same terms, as for `CCC(CC)n1c(Cc2cccs2)nc2cc(C(=O)N[C@@H](CC(C)C)C(=O)NC3CCN(C)CC3)ccc21` [Example 327, 1-(1-Ethyl-propyl)-2-thiophen-2-ylmethyl-1H-benzoimidazole-5-carboxylic acid [(S)-3-methyl-1-(1-methyl-piperidin-4-ylcarbamoyl)-butyl]-amide], the figure is 111 nM. Regarding `O=C(N[C@@H](Cc1ccccc1)C(=O)O)c1ccc2c(c1)nc(Cc1cccs1)n2C1CCCCC1C(F)(F)F` (stereo partly drawn) [Example 89, (S)-3-Phenyl-2-{[2-thiophen-2-ylmethyl-1-(2-trifluoromethyl-cyclohexyl)-1H-benzoimidazole-5-carbonyl]-amino}-propionic acid], the concentration for a half-maximal effect (EC50) (read-out: EC50 (APJ agonism)) turned out to be 9330 nM.

For the molecule `CCC(CC)n1c(Cc2cccs2)nc2cc(C(=O)N[C@@H](CC(C)C)C(=O)NCC3CN(CC(C)C)CCO3)ccc21` (stereo partly drawn) [Example 355, 1-(1-Ethyl-propyl)-2-thiophen-2-ylmethyl-1H-benzoimidazole-5-carboxylic acid {(S)-1-[(4-isobutyl-morpholin-2-ylmethyl)-carbamoyl]-3-methyl-butyl}-amide], where the note is “read-out: EC50 (APJ agonism)”, the 50% effective concentration (EC50) was 1520 nM.

With `CC1CCC(NC(=O)c2ccc3c(c2)nc(Cc2cccs2)n3[C@@H]2CCCC[C@H]2C)(C(=O)O)CC1` (stereo partly drawn) [Example 35, 4-Methyl-1-{[1-((1R,2R)-2-methyl-cyclohexyl)-2-thiophen-2-ylmethyl-1H-benzoimidazole-5-carbonyl]-amino}-cyclohexanecarboxylic acid], the EC50 (read-out: EC50 (APJ agonism)) is 291 nM. Same read-out and setting: as for `CCC(CC)n1c(Cc2cccs2)nc2cc(C(=O)N[C@@H](CC(C)C)C(=O)NCc3ccc(F)cc3)ccc21` [Example 244, 1-(1-Ethyl-propyl)-2-thiophen-2-ylmethyl-1H-benzoimidazole-5-carboxylic acid [(S)-1-(4-fluoro-benzylcarbamoyl)-3-methyl-butyl]-amide], the figure is 4280 nM.
